Test results published in the Kinase Knowledgebase extract (Sharma et al. 2016).

Columns and labels:
[1] = molecular target: EGFR (human) (UniProt P00533); conditions: concentration not given here
[2] = molecular target: CDK2 (human) (UniProt P24941); assay: Enzyme Assay; conditions: concentration not given here

Sequence of EGFR (human) (P00533 whole entry, looked up): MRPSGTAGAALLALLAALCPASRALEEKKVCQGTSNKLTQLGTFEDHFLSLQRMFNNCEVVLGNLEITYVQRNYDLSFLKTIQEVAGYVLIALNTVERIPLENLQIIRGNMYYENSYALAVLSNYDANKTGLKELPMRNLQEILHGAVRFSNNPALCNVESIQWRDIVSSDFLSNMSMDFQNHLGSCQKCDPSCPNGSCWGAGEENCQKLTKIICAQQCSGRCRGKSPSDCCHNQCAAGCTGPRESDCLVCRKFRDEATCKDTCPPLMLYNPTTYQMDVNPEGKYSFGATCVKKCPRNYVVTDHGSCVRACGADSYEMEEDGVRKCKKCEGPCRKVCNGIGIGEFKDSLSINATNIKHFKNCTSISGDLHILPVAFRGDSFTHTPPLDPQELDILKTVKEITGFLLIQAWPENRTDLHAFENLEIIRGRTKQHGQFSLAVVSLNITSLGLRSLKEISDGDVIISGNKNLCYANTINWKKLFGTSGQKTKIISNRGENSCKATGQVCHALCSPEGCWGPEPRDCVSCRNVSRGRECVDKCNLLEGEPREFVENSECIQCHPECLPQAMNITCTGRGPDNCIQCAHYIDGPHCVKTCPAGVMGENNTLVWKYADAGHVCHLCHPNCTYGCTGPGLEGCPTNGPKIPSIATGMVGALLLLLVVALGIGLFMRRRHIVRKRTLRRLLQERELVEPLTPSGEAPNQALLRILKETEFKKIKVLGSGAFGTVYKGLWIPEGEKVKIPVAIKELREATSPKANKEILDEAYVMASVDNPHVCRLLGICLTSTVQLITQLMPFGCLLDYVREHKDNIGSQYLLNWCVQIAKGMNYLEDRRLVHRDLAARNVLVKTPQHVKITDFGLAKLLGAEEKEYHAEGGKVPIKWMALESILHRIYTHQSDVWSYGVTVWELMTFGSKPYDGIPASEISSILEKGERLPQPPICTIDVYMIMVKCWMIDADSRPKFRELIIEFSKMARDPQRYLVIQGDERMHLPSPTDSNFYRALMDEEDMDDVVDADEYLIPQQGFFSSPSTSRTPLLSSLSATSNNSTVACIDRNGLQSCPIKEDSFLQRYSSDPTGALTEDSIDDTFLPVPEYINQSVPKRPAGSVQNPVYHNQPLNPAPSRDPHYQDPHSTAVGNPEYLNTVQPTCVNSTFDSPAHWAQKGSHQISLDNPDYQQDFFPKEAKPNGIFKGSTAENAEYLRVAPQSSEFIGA

Row | inhibition [1] | inhibition [2] | SMILES
1 | 27% | 7% | COc1ccc(C2=C(c3c[nH]c4ccccc34)C(=O)NC2=O)cc1OC
2 |  | 58% | COc1cc2c3c(c4c5ccccc5n(C)c4c2c(OC)c1OC)C(=O)NC3=O
3 | 3% |  | COc1ccc2[nH]c3c4c(OC)c(OC)c(OC)cc4c4c(c3c2c1)C(=O)NC4=O
4 | 5% |  | COc1cc(C2=C(c3c(C)[nH]c4ccccc34)C(=O)NC2=O)cc(OC)c1OC
